Assay results: ChEMBL document CHEMBL6071182, “Design, Biological Characterization, and Discovery of Novel Cyclohexenyl Derivatives as Kinesin KIF18A Inhibitors for the Treatment of Ovarian Cancer” (ACS Med Chem Lett, 2024); call rule not given here
pEC50, pIC50: −log10 of the molar value. Converted amounts (≈) assume the structure as drawn.

Key:
[1] = Plasma protein binding in human; type: ADME, cell-free; details: read-out: PPB (converted)
[2] = Plasma protein binding in mouse; type: ADME, cell-free; details: read-out: PPB (converted)
[3] = Plasma protein binding in dog; type: ADME, cell-free, Canis lupus familiaris; details: read-out: PPB (converted)
Cytochrome P450 3A4 [4] = biological target: T1, Cytochrome P450 3A4 (Homo sapiens, UniProt P08684); test: Inhibition of CYP3A4 (unknown origin) assessed as reduction in testosterone metabolism; type: ADME
T1 sequence (P08684 whole entry): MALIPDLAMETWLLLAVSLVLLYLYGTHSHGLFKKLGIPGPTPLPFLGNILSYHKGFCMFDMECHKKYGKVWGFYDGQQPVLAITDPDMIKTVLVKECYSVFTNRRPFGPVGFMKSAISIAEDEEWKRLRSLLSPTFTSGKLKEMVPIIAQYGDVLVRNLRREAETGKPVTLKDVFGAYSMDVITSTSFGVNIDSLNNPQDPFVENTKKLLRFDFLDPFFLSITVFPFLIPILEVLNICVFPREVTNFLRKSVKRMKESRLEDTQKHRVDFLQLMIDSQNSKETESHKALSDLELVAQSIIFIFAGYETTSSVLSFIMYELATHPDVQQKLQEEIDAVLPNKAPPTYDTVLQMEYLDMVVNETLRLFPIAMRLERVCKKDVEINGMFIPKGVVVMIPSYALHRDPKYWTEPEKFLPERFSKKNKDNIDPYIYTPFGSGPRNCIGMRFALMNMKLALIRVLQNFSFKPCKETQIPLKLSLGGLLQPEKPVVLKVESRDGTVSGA

[5] = AUC in ICR mouse at 2 mg/kg, po and 1 mg/kg, iv; type: ADME, organism-based; details: in vivo
[6] = Oral bioavailability in Sprague-Dawley rat at 2 mg/kg; type: ADME, organism-based; details: in vivo
[7] = Solubility in compound in FassGF; type: physicochemical
[8] = Toxicity in nude Balc/c mouse xenografted with human OVCAR-3 cells assessed as change in body weight at 10 to 30 mg/kg, po measured after 21 days; type: organism-based; details: in vivo, 504 h, dose 10-30 mg/kg, time 21 day
[9] = AUClast in Sprague-Dawley rat at 2 mg/kg, po and 1 mg/kg, iv; type: ADME, organism-based; details: in vivo
[10] = Cmax in Sprague-Dawley rat at 2 mg/kg, po and 1 mg/kg, iv; type: ADME, organism-based; details: in vivo
[11] = Oral bioavailability in Beagle dog at 2 mg/kg; type: ADME, organism-based, Canis lupus familiaris; details: in vivo
[12] = Half life in Beagle dog at 2 mg/kg, po and 1 mg/kg, iv; type: ADME, organism-based, Canis lupus familiaris; details: in vivo
[13] = Plasma protein binding in rat; type: ADME, cell-free; details: read-out: PPB (converted)
[14] = Half life in dog liver microsomes; type: ADME, Canis lupus familiaris, Microsome
[15] = Oral bioavailability in ICR mouse at 2 mg/kg; type: ADME, organism-based; details: in vivo
HCC1954 = test: Antiproliferative activity against human HCC1954 cells assessed as chemiluminescence measured after 4 days incubation by Celltiter Glo assay; details: HCC1954, 96 h
[16] = Half life in monkey liver microsomes; type: ADME, Macaca mulatta, Microsome; details: rhesus monkey
Cytochrome P450 3A4 [17] = biological target: T1, Cytochrome P450 3A4; test: Inhibition of CYP3A4 (unknown origin) assessed as reduction in midazolam metabolism; type: ADME
[18] = Permeability of compound across basolateral to apical side in human Caco-2 cells; type: ADME, cell-based; details: read-out: permeability
[19] = biological target: Voltage-gated inwardly rectifying potassium channel KCNH2 (Homo sapiens, UniProt Q12809); test: Inhibition of hERG; type: toxicity
Sequence of Voltage-gated inwardly rectifying potassium channel KCNH2 (Q12809 whole entry): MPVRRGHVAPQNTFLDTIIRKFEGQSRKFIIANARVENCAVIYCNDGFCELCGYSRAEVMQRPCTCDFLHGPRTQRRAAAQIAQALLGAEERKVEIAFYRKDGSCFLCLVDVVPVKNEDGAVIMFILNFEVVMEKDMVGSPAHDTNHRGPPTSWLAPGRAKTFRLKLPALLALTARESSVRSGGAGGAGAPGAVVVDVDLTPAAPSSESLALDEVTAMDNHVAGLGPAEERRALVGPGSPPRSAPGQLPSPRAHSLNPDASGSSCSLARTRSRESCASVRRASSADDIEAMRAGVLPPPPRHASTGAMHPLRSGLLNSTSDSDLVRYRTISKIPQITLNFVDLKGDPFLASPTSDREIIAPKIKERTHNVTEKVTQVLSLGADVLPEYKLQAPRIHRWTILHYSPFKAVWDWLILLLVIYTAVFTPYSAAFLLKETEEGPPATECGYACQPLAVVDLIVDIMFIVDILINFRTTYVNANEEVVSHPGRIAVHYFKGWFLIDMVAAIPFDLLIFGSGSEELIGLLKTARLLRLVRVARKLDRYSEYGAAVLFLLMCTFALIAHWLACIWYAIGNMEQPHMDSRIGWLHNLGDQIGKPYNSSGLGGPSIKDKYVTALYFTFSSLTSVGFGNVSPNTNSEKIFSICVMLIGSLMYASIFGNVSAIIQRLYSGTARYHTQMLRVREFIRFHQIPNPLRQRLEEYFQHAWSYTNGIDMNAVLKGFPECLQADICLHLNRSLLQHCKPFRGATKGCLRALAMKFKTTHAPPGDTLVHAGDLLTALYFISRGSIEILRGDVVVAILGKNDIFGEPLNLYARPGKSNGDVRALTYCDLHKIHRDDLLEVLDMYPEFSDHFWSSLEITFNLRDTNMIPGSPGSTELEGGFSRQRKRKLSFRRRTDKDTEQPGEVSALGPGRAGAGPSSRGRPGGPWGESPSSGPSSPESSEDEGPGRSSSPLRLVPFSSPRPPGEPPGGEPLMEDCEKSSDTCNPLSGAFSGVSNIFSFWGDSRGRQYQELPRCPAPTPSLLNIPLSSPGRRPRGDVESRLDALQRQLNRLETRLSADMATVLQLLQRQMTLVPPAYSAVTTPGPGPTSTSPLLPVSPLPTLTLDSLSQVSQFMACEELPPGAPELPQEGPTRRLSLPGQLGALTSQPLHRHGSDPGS

[20] = Solubility in compound in FessIF; type: physicochemical
OVCAR-3 [21] = test: In vivo antiproliferative activity against human OVCAR-3 cells xenografted in nude Balc/c mouse tumor model assessed as tumor growth inhibition at 30 mg/kg, po measured after 21 days; type: functional; details: OVCAR-3, 504 h, time 21 day, read-out: TGI
NCI-N87 = test: Antiproliferative activity against human NCI-N87 cells assessed as chemiluminescence measured after 4 days incubation by Celltiter Glo assay; details: NCI-N87, 96 h
[22] = Plasma protein binding in monkey; type: ADME, cell-free, Macaca mulatta; details: rhesus monkey, read-out: PPB (converted)
[23] = Half life in Sprague-Dawley rat at 2 mg/kg, po and 1 mg/kg, iv; type: ADME, organism-based; details: in vivo
[24] = Cmax in ICR mouse at 2 mg/kg, po and 1 mg/kg, iv; type: ADME, organism-based; details: in vivo
[25] = AUC in Beagle dog at 2 mg/kg, po and 1 mg/kg, iv; type: ADME, organism-based, Canis lupus familiaris; details: in vivo
[26] = Half life in rat liver microsomes; type: ADME, Microsome
BXPC-3 = test: Antiproliferative activity against human BxPC-3 cells assessed as chemiluminescence measured after 4 days incubation by Celltiter Glo assay; details: BXPC-3, 96 h
[27] = Half life in Cynomolgus monkey at 2 mg/kg, po and 1 mg/kg, iv; type: ADME, organism-based, Macaca fascicularis; details: in vivo
[28] = Permeability of compound across apical to basolateral side in human Caco-2 cells; type: ADME, cell-based; details: read-out: permeability
cells = details: Homo sapiens, OVCAR-3, 96 h
Description: Antiproliferative activity against KIF18A siRNA sensitive human OVCAR-3 cells assessed as decrease in nuclei number measured after 4 days incubation by Hoechst 33342 DNA dye based nuclear count assay (NCA)

OVCAR-3 [29] = test: In vivo antiproliferative activity against human OVCAR-3 cells xenografted in po dosed nude Balc/c mouse tumor model assessed as reduction in tumor volume measured after 21 days; type: functional, organism-based; details: dose 10-20 mg/kg, time 21.0 day, TDE = time-dependent effect
[30] = Half life in mouse liver microsomes; type: ADME, Microsome
[31] = Cmax in Balb/c mouse at 10 mg/kg, po; type: ADME, organism-based; details: in vivo
NUGC-3 = test: Antiproliferative activity against human NUGC-3 cells assessed as chemiluminescence measured after 4 days incubation by Celltiter Glo assay; details: NUGC-3, 96 h
[32] = Oral bioavailability in Cynomolgus monkey at 2 mg/kg; type: ADME, organism-based, Macaca fascicularis; details: in vivo
[33] = AUC in Cynomolgus monkey at 2 mg/kg, po and 1 mg/kg, iv; type: ADME, organism-based, Macaca fascicularis; details: in vivo
[34] = AUC in Balb/c mouse at 30 mg/kg, po; type: ADME, organism-based; details: in vivo
[35] = Cmax in Beagle dog at 2 mg/kg, po and 1 mg/kg, iv; type: ADME, organism-based, Canis lupus familiaris; details: in vivo
[36] = AUC in Balb/c mouse at 10 mg/kg, po; type: ADME, organism-based; details: in vivo
[37] = Half life in human liver microsomes; type: ADME, Microsome
[38] = Cmax in Cynomolgus monkey at 2 mg/kg, po and 1 mg/kg, iv; type: ADME, organism-based, Macaca fascicularis; details: in vivo
[39] = Half life in Balb/c mouse at 10 mg/kg, po; type: ADME, organism-based; details: in vivo
[40] = Solubility in compound in FassIF; type: physicochemical
[41] = Half life in ICR mouse at 2 mg/kg, po and 1 mg/kg, iv; type: ADME, organism-based; details: in vivo
[42] = Half life in Balb/c mouse at 30 mg/kg, po; type: ADME, organism-based; details: in vivo
[43] = Cmax in Balb/c mouse at 30 mg/kg, po; type: ADME, organism-based; details: in vivo
[44] = biological target: T2, Kinesin-like protein KIF11 (Homo sapiens, UniProt P52732); test: Inhibition of EG5 (unknown origin) assessed as luminescence measured after 135 mins by ADP-Glo motor assay
T2 sequence (P52732 whole entry): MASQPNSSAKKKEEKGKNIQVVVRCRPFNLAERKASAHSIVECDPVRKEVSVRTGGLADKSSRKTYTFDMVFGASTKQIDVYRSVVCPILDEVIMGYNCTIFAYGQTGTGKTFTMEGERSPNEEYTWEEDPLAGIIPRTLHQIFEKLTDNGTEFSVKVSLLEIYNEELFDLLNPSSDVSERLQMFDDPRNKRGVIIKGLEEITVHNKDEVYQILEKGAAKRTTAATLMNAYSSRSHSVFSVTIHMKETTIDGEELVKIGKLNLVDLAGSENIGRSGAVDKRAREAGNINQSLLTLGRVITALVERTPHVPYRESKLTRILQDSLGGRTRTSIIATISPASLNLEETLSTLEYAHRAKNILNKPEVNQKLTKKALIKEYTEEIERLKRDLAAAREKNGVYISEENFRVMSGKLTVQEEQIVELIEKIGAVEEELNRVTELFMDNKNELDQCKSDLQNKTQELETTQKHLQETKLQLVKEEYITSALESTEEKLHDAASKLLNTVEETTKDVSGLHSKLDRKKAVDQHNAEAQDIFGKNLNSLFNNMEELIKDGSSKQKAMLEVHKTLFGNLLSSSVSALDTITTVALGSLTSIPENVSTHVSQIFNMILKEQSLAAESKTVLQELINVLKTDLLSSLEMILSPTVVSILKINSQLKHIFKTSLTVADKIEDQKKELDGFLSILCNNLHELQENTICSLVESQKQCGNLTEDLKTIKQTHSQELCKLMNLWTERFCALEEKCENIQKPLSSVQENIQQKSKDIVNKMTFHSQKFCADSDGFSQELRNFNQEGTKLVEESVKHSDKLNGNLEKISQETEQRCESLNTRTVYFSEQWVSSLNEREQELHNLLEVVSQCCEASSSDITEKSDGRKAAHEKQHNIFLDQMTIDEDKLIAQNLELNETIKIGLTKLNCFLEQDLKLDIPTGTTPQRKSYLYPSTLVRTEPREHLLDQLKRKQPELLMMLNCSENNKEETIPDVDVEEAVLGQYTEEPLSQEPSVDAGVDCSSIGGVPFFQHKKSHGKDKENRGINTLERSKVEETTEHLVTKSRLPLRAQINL

[45] = biological target: T3, Kinesin-like protein KIF18A (Homo sapiens, UniProt Q8NI77); test: Inhibition of human recombinant KIF18A (1 to 374) assessed as luminescence measured after 70 mins by ADP-Glo motor assay
T3 sequence (Q8NI77 whole entry): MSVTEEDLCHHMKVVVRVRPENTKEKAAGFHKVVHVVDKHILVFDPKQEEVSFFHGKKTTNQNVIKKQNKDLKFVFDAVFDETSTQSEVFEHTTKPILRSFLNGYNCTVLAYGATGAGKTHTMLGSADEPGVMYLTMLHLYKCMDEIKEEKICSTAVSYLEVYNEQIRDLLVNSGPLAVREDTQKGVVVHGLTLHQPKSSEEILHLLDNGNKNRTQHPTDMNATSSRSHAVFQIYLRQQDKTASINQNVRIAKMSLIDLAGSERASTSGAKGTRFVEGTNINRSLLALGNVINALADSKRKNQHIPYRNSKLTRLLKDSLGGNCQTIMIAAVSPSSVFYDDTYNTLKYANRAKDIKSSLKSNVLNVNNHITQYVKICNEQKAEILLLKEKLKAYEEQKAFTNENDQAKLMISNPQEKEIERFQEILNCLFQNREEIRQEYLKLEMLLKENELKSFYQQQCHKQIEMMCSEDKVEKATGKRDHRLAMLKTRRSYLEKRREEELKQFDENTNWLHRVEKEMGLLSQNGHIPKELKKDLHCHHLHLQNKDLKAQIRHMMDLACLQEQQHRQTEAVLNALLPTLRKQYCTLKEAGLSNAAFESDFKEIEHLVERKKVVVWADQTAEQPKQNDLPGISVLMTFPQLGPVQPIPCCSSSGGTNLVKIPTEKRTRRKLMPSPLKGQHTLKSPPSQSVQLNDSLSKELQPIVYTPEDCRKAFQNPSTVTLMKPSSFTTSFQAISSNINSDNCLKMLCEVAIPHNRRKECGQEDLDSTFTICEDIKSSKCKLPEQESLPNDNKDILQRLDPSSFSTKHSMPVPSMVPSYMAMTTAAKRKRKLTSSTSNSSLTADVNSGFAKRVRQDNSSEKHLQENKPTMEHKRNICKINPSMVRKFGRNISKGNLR

## Cc1cc(NC(=O)c2ccc(NS(=O)(=O)CCO)cc2C2=CCC3(CC2)CC3)nc(N2CCC(F)(F)CC2)c1
[1]
  fraction unbound: 0.0004
[2]
  fraction unbound: 0.0011
[3]
  fraction unbound: 0.0007
Cytochrome P450 3A4 [4]
  pIC50: 4.64
[5]
  AUC: 3340 ng·h/mL
[6]
  bioavailability: 73%
[7]
  solubility: 3.3 µM (≈ 1.85 µg/mL)
[8]
  Activity: Non-Toxic
[9]
  AUC(0-t): 5840 ng·h/mL
[10]
  Cmax: 552 ng/mL
[11]
  bioavailability: 76.9%
[12]
  half-life: 7.6 h
[13]
  fraction unbound: 0.0023
[14]
  half-life: 2.21 h
[15]
  bioavailability: 68.2%
HCC1954
  pIC50: 7.85
[16]
  half-life: 0.203 h
Cytochrome P450 3A4 [17]
  pIC50: 4.65
[18]
  Papp B→A: 0.49 ×10⁻⁶ cm/s
[19]
  pIC50: < 4.52
[20]
  solubility: 43.6 µM (≈ 24.4 µg/mL)
OVCAR-3 [21]
  inhibition in vivo at 30 mg/kg: 113%
NCI-N87
  pIC50: 5.06
[22]
  fraction unbound: 0.0008
[23]
  half-life: 2.7 h
[24]
  Cmax: 393 ng/mL
[25]
  AUC: 11500 ng·h/mL
[26]
  half-life: 1.03 h
BXPC-3
  pIC50: 5.06
[27]
  half-life: 4.5 h
[28]
  Papp A→B: < 0.01 ×10⁻⁶ cm/s
cells
  pEC50: 7.19
OVCAR-3 [29]
  Activity: Tde
[30]
  half-life: 1.47 h
[31]
  Cmax: 2160 ng/mL
NUGC-3
  pIC50: 7.80
[32]
  bioavailability: 40.2%
[33]
  AUC: 2850 ng·h/mL
[34]
  AUC: 54400 ng·h/mL
[35]
  Cmax: 1150 ng/mL
[36]
  AUC: 27700 ng·h/mL
[37]
  half-life: 0.38 h
[38]
  Cmax: 478 ng/mL
[39]
  half-life: 3.38 h
[40]
  solubility: 18.5 µM (≈ 10.4 µg/mL)
[41]
  half-life: 4.6 h
[42]
  half-life: 6.38 h
[43]
  Cmax: 4040 ng/mL

## Cc1cc(NC(=O)c2ccc(NS(=O)(=O)CCO)cc2C2=CCC3(CC2)CC3)nc(N2CCC(F)(F)CC2)n1
[6]
  bioavailability: 69.5%
[9]
  AUC(0-t): 1610 ng·h/mL
[10]
  Cmax: 158 ng/mL
[23]
  half-life: 4.2 h
cells
  pEC50: 7.15
[44]
  pIC50: < 4.52

## O=C(Nc1cccc(N2CCC(F)(F)CC2)c1)c1ccc(NS(=O)(=O)CCO)cc1C1=CCC2(CC1)CC2
cells
  pEC50: 6.47
[45]
  IC50: Not Active
